Assay results published in publication PMC6952399, “Structures of lipoprotein signal peptidase II from Staphylococcus aureus complexed with antibiotics globomycin and myxovirescin” (Nature Communications, 2020).

How the values were obtained:
LspMrs G54A = target: T1, LspMrs G54A (Staphylococcus aureus, UniProt Q6GHN9, G54A); assay: Gel-shift peptidase assay, LspMrs G54A mutant; type: biochemical, methicillin-resistant Staphylococcus aureus
T1 construct: MGSS-hexahistidine-SSGR-TEV site (ENLYFQ) (N, cleaved yes); made in house; host or cells: E. coli C43 (DE3)
Experimental: (§1) LspA mutant genes (N52A, N52Q, G54A, G54P, R110A, R110K, D118N, N133A, N133Q and D136N) were obtained by site-directed mutagenesis of the wild-type lspA construct in pETDuet. Mutagenesis was performed using the Q5® Site-Directed Mutagenesis Kit (New England Biolabs) and specific primers are listed in Supplementary Table 5. The correct mutations were confirmed by sequencing (Eurofins Genomics). Expression and purification of all LspMrs wild-type and mutants for enzyme assays were performed as described above with the following modifications: TALON® Metal Affinity Resin (Clontech) was used for IMAC purification and the detergent DDM was used for membrane solubilisation and protein purification.
(§2) The peptidase activity of LspMrs and P. aeruginosa LspA (LspPae) was quantified in a coupled gel-shift assay developed previously for LspPae[5]. The P. aeruginosa lipoprotein pre-proICP and the first two enzymes in the bacterial lipoprotein processing pathway Lgt and LspA were expressed and purified, as described. For FRET assays LspMrs was expressed and purified as described above and LspPae was expressed and purified as described in a published protocol.
(§3) Gel-shift activity assay. […] Band intensities of ICP were quantified using Image Lab. […]

[1] = target: T2, LspMrs (lipoprotein signal peptidase II from methicillin-resistant Staphylococcus aureus) (Staphylococcus aureus, UniProt Q6GHN9); assay: Coupled gel-shift peptidase assay with proICP substrate, LspMrs WT; type: biochemical; settings: proICP substrate (12 µM pre-proICP), 0.5 µM enzyme, 30 min
T2 construct: MGSS-hexahistidine-SSGR-TEV site (ENLYFQ) (N, cleaved yes); made in house; host or cells: E. coli C43 (DE3)
Text: as §2
Gel-shift activity assay. For time course assays, reactions were set up containing 12 µM pre-proICP, 250 µM DOPG (Avanti Polar Lipids, Inc.) and 1.2 µM Lgt in Buffer E (50 mM Tris/HCl pH 7.5, 150 mM NaCl, 1 mM DTT, 0.02%(w/v) LMNG). The assay mixtures were incubated at 37 °C and 200 rpm for 60 min to allow Lgt catalysed conversion of pre-proICP to the LspA substrate proICP. The LspA reaction was initiated by adding 0.5 µM LspA directly to the assay mixture. At timed intervals, 20 µL samples were removed and the reaction was stopped by adding 10 µL of 4x SDS loading buffer (62.5 mM Tris/HCl pH 6.8, 2.5%(w/v) SDS, 0.002%(w/v) bromophenol blue, 0.5 M β-mercaptoethanol, 10%(v/v) glycerol). To compare the activity of wild-type and mutant LspMrs, assays were allowed to proceed for 30 min before being stopped with SDS loading buffer. […] Band intensities of ICP were quantified using Image Lab. […]

LspMrs N52A = target: T3, LspMrs N52A (Staphylococcus aureus, UniProt Q6GHN9, N52A); assay: Gel-shift peptidase assay, LspMrs N52A mutant; type: biochemical, methicillin-resistant Staphylococcus aureus
T3 construct: MGSS-hexahistidine-SSGR-TEV site (ENLYFQ) (N, cleaved yes); made in house; host or cells: E. coli C43 (DE3)
Experimental: as §1, §2, §3

LspA from E. coli = tested on: LspA from E. coli; design: method as in earlier work; settings: ref 7 (supplementary references); cited from earlier work

| Structure (SMILES) | IC50 (LspMrs G54A) | IC50 [1] | IC50 (LspMrs N52A) | inhibition type (LspA from E. coli) |
| --- | --- | --- | --- | --- |
| CCCCCC[C@H]1OC(=O)CNC(=O)[C@H]([C@H](C)O)NC(=O)[C@H](CO)NC(=O)[C@H]([C@H](C)CC)NC(=O)[C@H](CC(C)C)N(C)C(=O)[C@@H]1C [globomycin] | 1.78 ± 0.25 µM | 171 µM | 1.23 ± 0.59 µM | non-competitive |
| CCCC1OC(=O)C(C)CC(C)CCCCC(=O)CCCC(CC)C=CC=C(COC)CCC(O)C(O)CC(O)CNC1=O (stereo not drawn) [myxovirescin, myxovirescin A1] | 0.57 ± 0.01 µM | 0.16 µM |  |  |
